Laboratory results: patent US4536346A, “Aralkanamidophenyl compounds” (American Cyanamid Company, priority 1983, dated 1985)

Target: T1, fatty acyl CoA: cholesterol acyl transferase (ACAT) (Rattus norvegicus, UniProt O70536)
T1 construct: The supernatant, containing the microsomal fraction, served as the source of the cholesterol-esterifying enzyme; from tissue; host or cells: rat adrenals (1,000 x g supernatant containing the microsomal fraction)
T1 sequence (O70536 1-545): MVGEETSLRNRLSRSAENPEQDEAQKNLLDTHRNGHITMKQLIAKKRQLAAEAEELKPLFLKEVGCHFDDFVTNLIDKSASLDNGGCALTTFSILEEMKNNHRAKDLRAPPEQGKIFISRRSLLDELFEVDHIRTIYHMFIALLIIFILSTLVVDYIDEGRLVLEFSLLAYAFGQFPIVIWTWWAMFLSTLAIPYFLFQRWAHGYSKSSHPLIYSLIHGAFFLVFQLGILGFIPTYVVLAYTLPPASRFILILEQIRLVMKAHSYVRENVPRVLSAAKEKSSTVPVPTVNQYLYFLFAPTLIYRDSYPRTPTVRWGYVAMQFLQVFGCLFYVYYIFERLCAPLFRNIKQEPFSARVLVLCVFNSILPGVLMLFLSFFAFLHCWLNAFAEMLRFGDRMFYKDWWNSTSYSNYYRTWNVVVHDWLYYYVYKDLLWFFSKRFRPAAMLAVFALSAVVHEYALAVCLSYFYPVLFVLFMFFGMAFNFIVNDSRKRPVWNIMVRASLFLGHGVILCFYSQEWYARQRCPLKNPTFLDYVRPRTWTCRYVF
Test: Inhibition of enzymatic esterification of cholesterol (ACAT) in rat adrenal supernatant containing the microsomal fraction
Type: biochemical
Conditions: final concentration of test compound 5.2 μg./ml., percent inhibition of the ACAT enzyme compared to control values
Protocol: The compounds of the present invention were tested for their ability to inhibit the enzymatic esterification of cholesterol according to the following procedure:
Rat adrenals were homogenized in 0.2M monobasic potassium phosphate buffer, pH 7.4, and centrifuged at 1,000 times gravity for 15 minutes at 5° C. The supernatant, containing the microsomal fraction, served as the source of the cholesterol-esterifying enzyme, fatty acyl CoA: cholesterol acyl transferase (ACAT). A mixture comprising 50 parts of adrenal supernatant, 10 parts of albumin (BSA) (50 mg./ml.), […], 3 parts of test compound, and 500 parts of buffer was pre-incubated at 37° C. for 10 minutes. After treatment with 20 parts of oleoyl CoA (^14 C-0.4 μCi), the mixture was incubated at 37° C. for 10 minutes. A control mixture, omitting the test compound, was prepared and treated in the same manner. The lipids from the incubation mixture were extracted into an organic solvent and separated by thin-layer chromatography. The cholesterol ester fraction was counted in a scintillation counter. This procedure is a modification of that described by Hashimoto, et al., Life Scie., 12 (Part II), 1-12 (1973).
The results of this test on representative compounds of this invention appear in Table I. The final concentration of the test compound was 5.2 μg./ml., and the effectiveness of the compound is expressed as percent inhibition of the ACAT enzyme compared to control values.

inhibition at 5.2 µg/mL: 40%
Structure (SMILES): CCOC(=O)c1ccc(NC(=O)C=C(c2ccccc2)c2ccccc2)cc1 [p-(3,3-Diphenylacrylamido)benzoic acid, ethyl ester]
